How the values were obtained:
[1] = test system: thrombin generation in normal human plasma with rhAPC; assay: Thrombin generation in normal human plasma in the presence of rhAPC; type: biochemical
Procedure: BU titer values for FVIII antibodies added to FVIII-deficient plasma were determined using a modified Nijmegen Bethesda assay (Barrow and Lollar; JTH 2006, 4:2223-2229). Briefly, antibody was serially diluted in HBS with 0.05% Tween 80 and mixed 1:1 with pooled normal plasma that was supplemented with 100 mM Imidazole, pH 7.0. Samples were incubated at 37° C. for 2 hours then assayed by aPTT with APTT XL reagent (Pacific Hemostasis). A standard curve was derived from a serial dilution of normal plasma into FVIII deficient plasma that was also mixed 1:1 with HBST and incubated at 37° C. for 2 hours. Percent FVIII activity was plotted versus mg/ml of antibody and residual activity of 50% was defined as 1 BU/ml. In addition, endogenous thrombin potential (ETP) assays were performed as described (3). Briefly FVa mutants or saline were added to human or murine plasma (George King Bio-Medical; mouse source, 50% v/v) supplemented with […] corn trypsin inhibitor (Haematologic Technologies), 10 mM CaCl2, 10 μM phospholipid vesicles (80% phosphatidylcholine, 20% phosphatidylserine, prepared as described (6), 0.2 pM soluble tissue factor (Innovin®, Dade Behring), and 0.4 mM Z-Gly-Gly-Arg-AMC (thrombin substrate, Bachem) in HBS. After mixing, 100 μL was transferred to a FluoroNunc microtiter plate at 37° C. to monitor fluorescence (excitation at 360 nm/emission at 460 nm; Gemini EM fluorescent plate reader (Molecular Devices)). Fluorescence time course data were converted to nM thrombin as described (7). ETP, defined as the area under the curve, was determined using Prism 5.04 (Graphpad).
APC-mediated inactivation of FVa was analyzed in ETP assays and aPTT clotting assays. FVa mutants were incubated with equal volumes of either recombinant human APC (Xigris®) or buffer in human and murine Balb/c plasma.

[2] = test system: thrombin generation in FVIII-deficient plasma; details: von Drygalski et al. JTH 2014; cited from earlier work

Substance: ^superFVa: engineered APC-resistant FVa variant (SEQ ID NO:4): R306Q, R506Q, R679Q, Cys609-Cys1691 disulfide, S2183A, B-domain deleted
- rescue of APC-induced reduction of thrombin generation ([1]; factor alone, rhAPC, normal human plasma (FIG. 16)): corrected thrombin generation to levels to those of normal human plasma
- ETP restored ([1]; human plasma, ETP maximally suppressed by APC): 90-100%
- effect on thrombin generation suppressed by APC ([1]; human plasma, concentrations where ^superFVa restores): fully restored thrombin generation
- increase of ETP in human FVIII-deficient plasma [2]: approximately 2 fold
